In data set [1] the test system is PSMA-positive PC-3 PIP tumor cells. As to the kind of experiment: Cell uptake and internalization, PSMA-positive cells. The data set is classed as cell-based. The text has this: Cell uptake and internalization of ^177Lu-Ibu-PSMA, ^177Lu-Ibu-Dα-PSMA, ^177Lu-Ibu-Dβ-PSMA, ^177Lu-Ibu-N-PSMA and ^177Lu-Ibu-DAB-PSMA were investigated using PSMA-positive PC-3 PIP and PSMA-negative PC-3 flu tumor cells kindly provided by Prof. Dr. Martin Pomper (John Hopkins Institutions, Baltimore, U.S.; Eiber, M.; Fendler, W. P.; Rowe, S. P.; Calais, J.; Hofman, M. S.; Maurer, T.; Schwarzenboeck, S. M.; Kratowchil, C.; Herrmann, K.; Giesel, F. L. Prostate-specific membrane antigen ligands for imaging and therapy. J Nucl Med 2017, 58, (Suppl 2), 67S-76S). Each radioligand was investigated by the performance of experiments performed 3 times in triplicate with PC-3 PIP tumor cell and once in triplicate with PC-3 flu tumor cells.
Cell uptake and internalization of ^177Lu-Ibu-sPSMA were investigated using PSMA-positive PC-3 PIP and PSMA-negative PC-3 flu tumor cells kindly provided by Prof. Dr. Martin Pomper (Johns Hopkins University School of Medicine, Baltimore, Md., U.S.A.) (Eiber, et al.; J Nucl Med 2017, 58, (Suppl 2), 67S-76S). ^177Lu-Ibu-sPSMA was investigated by performing experiments 3 times in 6 replicates with PC-3 PIP tumor cells and 3 times in 6 replicates with PC-3 flu tumor cells.

Data set [2] can be described thus: Plasma protein binding, ultrafiltration assay. The data set is classed as in vitro ADME. Conditions: incubated in human plasma at 37° C., read-out: fraction of radioligand retained in the filter membrane (serum protein binding) (converted). The protocol:
In short, the PSMA-ligands were labeled with ^177Lu at a specific activity of 50 MBq/nmol and incubated in human plasma samples or PBS at room temperature. The free and plasma-bound fractions were separated using a centrifree ultrafiltration device (4104 centrifugal filter units; Millipore, 30000 Da nominal molecular weight limit, methylcellulose micropartition membranes). The incubated solution was loaded to the ultrafiltration device and centrifuged at 2500 rpm for 40 min at 20° C. Samples from the filtrate were taken and analyzed for radioactivity in a γ-counter. The amount of plasma-bound radioligand was calculated as the fraction of radioactivity measured in the […] relative to the corresponding loading solution (set to 100%). The experiments were performed at least 3 times for each radioligand.
Plasma protein-binding properties of ^177Lu-Ibu-sPSMA were determined using an ultrafiltration assay according to Benesova, M. et al. (Mol Pharm 2018, 15, (3), 934-946). In short, the Ibu-sPSMA-ligand was labeled with ^177Lu at a molar activity of 50 MBq/nmol and incubated in human plasma samples or PBS at 37° C. […] Samples from the filtrate were taken and analyzed for radioactivity in a γ-counter. The amount of plasma-bound radioligand was calculated as the fraction of radioactivity measured in the […] relative to the corresponding loading solution (set to 100%). […]

In the case of `CC(C)Cc1ccc(C(C)C(=O)NCC[C@H](NC(=O)CN2CCN(CC(=O)O)CCN(CC(=O)O)CCN(CC(=O)O)CC2)C(=O)NCC2CCC(C(=O)N[C@@H](Cc3ccc4ccccc4c3)C(=O)NCCCC[C@H](NC(=O)N[C@@H](CCC(=O)O)C(=O)O)C(=O)O)CC2)cc1` (stereo partly drawn) [^177Lu-Ibu-sPSMA, metal not drawn], the results for the internalized fraction in data set [1] (2 h incubation) and in data set [1] (4 h incubation) were 18% and 22%, respectively. Further, the fraction unbound in data set [2] was about 0.03.

(Values after patent US20220024882A1, “NOVEL TUMOR ANTIGEN BINDING AGENTS AND USES THEREOF” (ITM Isotopen Technologien München AG, priority 2018, published 2022).)
